In brackets after ≈: the same amount, converted by molar mass. One block for each molecule: values may come before it.
How the values were obtained:
[1] = system: CEM-SS; assay: Cytotoxicity against human CEM-SS cells assessed as inhibition of cell growth; assay type: functional
[2] = Chemical stability of compound in PBS buffer at pH 7.4 assessed as half life measured for 24 hrs; assay type: physicochemical
[3] = Chemical stability of compound in PBS buffer at pH 4 assessed as half life measured for 24 hrs; assay type: physicochemical
[4] = Aqueous solubility of compound; assay type: physicochemical; conditions: buffer
[5] = Metabolic stability in rat liver microsome assessed as compound remaining measured after 2 hrs; assay type: ADME; conditions: microsomes
[6] = AUC in rat at 5 mg/kg, po; assay type: ADME, organism-based; set-up: dose 5 mg/kg, route po; conditions: in vivo
[7] = Stability of compound assessed as half life at pH 2; assay type: physicochemical; conditions: buffer
[8] = Half life in calf; assay type: ADME, Bos taurus; conditions: cattle
[9] = Oral bioavailability in rat at 3 mg/kg; assay type: ADME, organism-based; conditions: in vivo
[10] = Solubility of compound at pH at 1 to 8; assay type: physicochemical
[11] = target: Human immunodeficiency virus type 1 protease (Human immunodeficiency virus 1, UniProt Q72874); assay: Inhibition of HIV-1 protease by FRET-based assay
[12] = Stability of compound in PBS buffer at pH 7.4 assessed as half life; assay type: physicochemical
[13] = Prodrug conversion in human serum at 50 uM using glycylprolyl-para-nitroanilide as substrate measured for 4 hrs relative to control; assay type: ADME, cell-free
[14] = Prodrug conversion in human serum at 50 uM using glycylprolyl-para-nitroanilide as substrate measured for 1 hr relative to control; assay type: ADME, cell-free
[15] = Stability of compound in human Caco-2 cells assessed as half life measured for 48 hrs; assay type: ADME, cell-based
[16] = Stability of compound in DPBS buffer at pH 7.4 assessed as half life measured for 48 hrs; assay type: physicochemical
[17] = target: T1, Peptidyl-prolyl cis-trans isomerase FKBP1A (Homo sapiens, UniProt P62942); assay: Inhibition of FKBP12 (unknown origin) measured for 6 hrs relative to control; conditions: concentration not given here
[18] = Half life in mouse plasma at 10 mg/kg, ip measured after 3 hrs; assay type: ADME, organism-based
[19] = Equilibrium solubility of compound; assay type: physicochemical
[20] = Efflux ratio of apparent permeability across apical to basolateral to basolateral to apical side in MDCK1 cells; assay type: ADME, cell-based
[21] = system: P-glycoprotein; assay: Efflux ratio of apparent permeability across basal to apical membrane over apical to basal membrane in human Caco-2 cells in absence of P-glycoprotein; assay type: ADME, cell-based
[22] = Metabolic stability in rat liver microsome assessed as half life […]; assay type: ADME; conditions: liver microsomes
[23] = Metabolic stability in rat plasma assessed as half life at 0.2 mg/kg, po; assay type: ADME
[24] = Solubility of compound at pH at 3; assay type: physicochemical; conditions: pH 3
[25] = Solubility of compound at pH at 7; assay type: physicochemical; conditions: pH 7
[26] = Solubility of compound at pH at 3 to 4; assay type: physicochemical
[27] = Metabolic stability in rat liver microsome assessed as compound remaining measured after 4 hrs; assay type: ADME; conditions: microsomes
[28] = Efflux ratio of apparent permeability across basal to apical membrane over apical to basal membrane in human Caco-2 cells; assay type: ADME, cell-based
[29] = Drug uptake in dog MDCK-MDR1 cells; assay type: ADME, cell-based, Canis lupus familiaris
[30] = Half life in mouse plasma at 10 mg/kg, ip measured after 12 hrs; assay type: ADME, organism-based
[31] = target: T1, Peptidyl-prolyl cis-trans isomerase FKBP1A; assay: Inhibition of FKBP12 (unknown origin)

T1 sequence (P62942 whole entry): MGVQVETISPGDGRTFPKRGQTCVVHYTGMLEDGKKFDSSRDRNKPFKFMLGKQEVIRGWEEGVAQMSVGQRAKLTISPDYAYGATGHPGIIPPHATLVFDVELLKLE

AUC [6]: 9530 ng·h/mL
half-life [7]: < 0.25 h
solubility [4]: > 5000 µg/mL
SMILES: Cc1cccc(C)c1OCC(=O)N[C@@H](Cc1ccccc1)[C@H](C[C@H](Cc1ccccc1)NC(=O)[C@H](C(C)C)N1CCCNC1=O)OC(C)OP(=O)([O-])[O-].[Na+].[Na+] (stereo not given in full)

AUC [6]: 19650 ng·h/mL
solubility [4]: > 5000 µg/mL
SMILES: Cc1cccc(C)c1OCC(=O)N[C@@H](Cc1ccccc1)[C@H](C[C@H](Cc1ccccc1)NC(=O)[C@H](C(C)C)N1CCCNC1=O)OCOP(=O)([O-])[O-].[Na+].[Na+]

solubility [10]: > 3000 µg/mL
SMILES: CC(C)CN(C[C@@H](OP(=O)(O)O)[C@H](Cc1ccccc1)NC(=O)O[C@H]1CCOC1)S(=O)(=O)c1ccc(N)cc1 [FOSAMPRENAVIR]

AUC [6]: 630 ng·h/mL
half-life [7]: < 0.25 h
solubility [4]: > 5000 µg/mL
SMILES: CC(O[C@@H](C[C@H](Cc1ccccc1)NC(=O)[C@@H](NC(=O)N(C)Cc1csc(C(C)C)n1)C(C)C)[C@H](Cc1ccccc1)NC(=O)OCc1cncs1)OP(=O)([O-])[O-].[Na+].[Na+] (stereo not given in full)

Drug metabolism [13]: 2%
Drug metabolism [14]: 2%
SMILES: CC(C)CN(C[C@@H](O)[C@H](Cc1ccccc1)NC(=O)O[C@H]1CO[C@H]2OCC[C@H]21)S(=O)(=O)c1ccc(CNC(=O)[C@@H]2CCCN2C(=O)[C@@H](N)C(C)C)cc1

half-life [8]: > 0.5 h
SMILES: CC(C)c1nc(CN(C)C(=O)N[C@H](C(=O)N[C@@H](Cc2ccccc2)C[C@H](OC(OP(=O)([O-])[O-])C(C)C)[C@H](Cc2ccccc2)NC(=O)OCc2cncs2)C(C)C)cs1.[Na+].[Na+] (stereo not given in full)

AUC [6]: 450 ng·h/mL
SMILES: CCCC(O[C@@H](C[C@H](Cc1ccccc1)NC(=O)[C@@H](NC(=O)N(C)Cc1csc(C(C)C)n1)C(C)C)[C@H](Cc1ccccc1)NC(=O)OCc1cncs1)OP(=O)([O-])[O-].[Na+].[Na+] (stereo not given in full)

solubility thermodynamic [19]: 160 µM (≈ 80.9 µg/mL)
SMILES: CC(C)CN(C[C@@H](O)[C@H](Cc1ccccc1)NC(=O)O[C@H]1CCOC1)S(=O)(=O)c1ccc(N)cc1

solubility [24]: 54000 µg/mL
solubility [25]: 300 µg/mL
solubility [26]: 54000 µg/mL
solubility thermodynamic [19]: 400 µM
SMILES: CC(C)CN(C[C@@H](OP(=O)([O-])[O-])[C@H](Cc1ccccc1)NC(=O)O[C@H]1CCOC1)S(=O)(=O)c1ccc(N)cc1.[Ca+2] [FOSAMPRENAVIR CALCIUM]

solubility [10]: > 3000 µg/mL
SMILES: CC(C)CN(C[C@@H](OP(=O)([O-])[O-])[C@H](Cc1ccccc1)NC(=O)O[C@H]1CCOC1)S(=O)(=O)c1ccc(N)cc1.[Na+].[Na+] [FOSAMPRENAVIR SODIUM]

The next lines start with the molecule.

SMILES: CCCCCCCCCCCCCCCC(=O)OCC(COC(=O)CCCCCCCCCCCCCCC)OC(=O)CCC(=O)O[C@@H](C[C@@H](Cc1ccccc1)C(=O)N[C@H]1c2ccccc2C[C@H]1O)CN1CCN(Cc2cccnc2)C[C@H]1C(=O)NC(C)(C)C
CC50 [1]: > 100000 nM

SMILES: Cc1cccc(C)c1OCC(=O)N[C@@H](Cc1ccccc1)[C@@H](O)C[C@H](Cc1ccccc1)NC(=O)[C@H](C(C)C)N1CCCNC1=O [LOPINAVIR]
half-life [2]: 5.4 h
half-life [3]: 101 h
solubility [4]: 7 µg/mL (≈ 11.1 µM)
Stability [5]: 5%

SMILES: CC(C)c1nc(CN(C)C(=O)N[C@H](C(=O)N[C@@H](Cc2ccccc2)C[C@H](OCOP(=O)([O-])[O-])[C@H](Cc2ccccc2)NC(=O)OCc2cncs2)C(C)C)cs1.[Na+].[Na+]
AUC [6]: 460 ng·h/mL
solubility [4]: > 5000 µg/mL
half-life [8]: 0.117 h

SMILES: CC(C)(C)NC(=O)[C@@H]1CN(Cc2cccnc2)CCN1C[C@@H](O)C[C@@H](Cc1ccccc1)C(=O)N[C@H]1c2ccccc2C[C@H]1O.O
bioavailability [9]: 76%

SMILES: COc1ccc(S(=O)(=O)N(CC(C)C)C[C@@H](O)[C@H](Cc2ccccc2)NC(=O)CCC(=O)O)cc1
IC50 [11]: 11.8 nM

SMILES: Cc1cccc(C)c1OCC(=O)N[C@@H](Cc1ccccc1)[C@H](O)C(=O)N1CSC(C)(C)[C@H]1C(=O)NC(C)(C)C
half-life [12]: 4 min

SMILES: CC(C)[C@H](N)C(=O)O[C@@H]1Cc2ccccc2[C@@H]1NC(=O)[C@H](Cc1ccccc1)C[C@H](O)CN1CCN(Cc2cccnc2)C[C@H]1C(=O)NC(C)(C)C
bioavailability [9]: 32%

SMILES: CC(C)(C)NC(=O)[C@@H]1C[C@@H]2CCCC[C@@H]2CN1C[C@@H](OC(=O)CCC(=O)OCC(O)C1OC(=O)C(O)=C1O)[C@H](Cc1ccccc1)NC(=O)[C@H](CC(N)=O)NC(=O)c1ccc2ccccc2n1 (stereo not given in full)
half-life [15]: 5.73 h
half-life [16]: 9.65 h

SMILES: COc1ccc(S(=O)(=O)N(CC(C)C)C[C@@H](O)[C@H](Cc2ccccc2)NC(=O)O[C@H]2CCOC2)cc1
IC50 [11]: 4.2 nM
inhibition [17]: 100%
half-life [18]: 0.5 h

SMILES: CC(C)[C@H](N)C(=O)N[C@H](C(=O)O[C@H](CN1C[C@H]2CCCC[C@H]2C[C@H]1C(=O)NC(C)(C)C)[C@H](Cc1ccccc1)NC(=O)[C@H](CC(N)=O)NC(=O)c1ccc2ccccc2n1)C(C)C
Ratio [20]: 2.1
efflux ratio [21]: 1.2
half-life [22]: 1.48 h
half-life [23]: 7.8 h

SMILES: CCCCCCCC/C=C\CCCCCCCC(=O)OCC(COC(=O)CCCCCCC/C=C\CCCCCCCC)OC(=O)CCC(=O)O[C@@H](C[C@@H](Cc1ccccc1)C(=O)N[C@H]1c2ccccc2C[C@H]1O)CN1CCN(Cc2cccnc2)C[C@H]1C(=O)NC(C)(C)C
CC50 [1]: > 100000 nM

SMILES: Cc1cccc(C)c1OCC(=O)N[C@@H](Cc1ccccc1)[C@H](C[C@H](Cc1ccccc1)NC(=O)[C@H](C(C)C)N1CCCNC1=O)OC(=O)[C@@H](NC(=O)[C@@H](N)C(C)C)C(C)C
Stability [27]: 46%
Stability [5]: 10%

SMILES: CC(C)[C@H](NC(=O)CN)C(=O)O[C@H](CN1C[C@H]2CCCC[C@H]2C[C@H]1C(=O)NC(C)(C)C)[C@H](Cc1ccccc1)NC(=O)[C@H](CC(N)=O)NC(=O)c1ccc2ccccc2n1
Ratio [20]: 2.1

SMILES: CC(C)[C@H](N)C(=O)N[C@@H](C(=O)O[C@H](CN1C[C@H]2CCCC[C@H]2C[C@H]1C(=O)NC(C)(C)C)[C@H](Cc1ccccc1)NC(=O)[C@H](CC(N)=O)NC(=O)c1ccc2ccccc2n1)C(C)C
efflux ratio [21]: 1.2
half-life [22]: 2.97 h

SMILES: Cc1cccc(C)c1OCC(=O)N[C@@H](Cc1ccccc1)[C@H](C[C@H](Cc1ccccc1)NC(=O)[C@H](C(C)C)N1CCCNC1=O)OC(=O)[C@@H](NC(=O)CN)C(C)C
Stability [27]: 46%
Stability [5]: 26%

SMILES: CC(C)[C@H](NC(=O)[C@H](N)C(C)C)C(=O)O[C@H](CN1C[C@H]2CCCC[C@H]2C[C@H]1C(=O)NC(C)(C)C)[C@H](Cc1ccccc1)NC(=O)[C@H](CC(N)=O)NC(=O)c1ccc2ccccc2n1
efflux ratio [21]: 1.2
half-life [22]: 3.73 h

SMILES: CCCCCCCCCCCCCCCC(=O)OCC(COC(=O)CCCCCCCCCCCCCCC)OC(=O)CCC(=O)O[C@H](CN1C[C@H]2CCCC[C@H]2C[C@H]1C(=O)NC(C)(C)C)[C@H](Cc1ccccc1)NC(=O)[C@H](CC(N)=O)NC(=O)c1ccc2ccccc2n1
CC50 [1]: > 100000 nM

SMILES: CC(C)[C@@H](N)C(=O)O[C@H](CN1C[C@H]2CCCC[C@H]2C[C@H]1C(=O)NC(C)(C)C)[C@H](Cc1ccccc1)NC(=O)[C@H](CC(N)=O)NC(=O)c1ccc2ccccc2n1
efflux ratio [21]: 1.2
half-life [22]: 0.933 h

SMILES: COC(=O)N[C@H](C(=O)N[C@@H](Cc1ccccc1)[C@@H](O)CN(Cc1ccc(-c2ccccn2)cc1)NC(=O)[C@@H](NC(=O)OC)C(C)(C)C)C(C)(C)C [ATAZANAVIR]
efflux ratio [28]: 12

SMILES: CC(C)(C)NC(=O)[C@@H]1C[C@@H]2CCCC[C@@H]2CN1C[C@@H](OC(=O)CCCC[C@@H]1SC[C@@H]2NC(=O)N[C@@H]21)[C@H](Cc1ccccc1)NC(=O)[C@H](CC(N)=O)NC(=O)c1ccc2ccccc2n1
Drug uptake [29]: 72%

SMILES: CCCCCCCC/C=C\CCCCCCCC(=O)OCC(COC(=O)CCCCCCC/C=C\CCCCCCCC)OC(=O)CCC(=O)O[C@H](CN1C[C@H]2CCCC[C@H]2C[C@H]1C(=O)NC(C)(C)C)[C@H](Cc1ccccc1)NC(=O)[C@H](CC(N)=O)NC(=O)c1ccc2ccccc2n1
CC50 [1]: > 100000 nM

SMILES: CCC(C)(C)C(=O)C(=O)N1CCCCC1C(=O)OC(CCc1ccc(OC)c(OC)c1)c1cccc(NC(=O)CCC(=O)N[C@@H](Cc2ccccc2)[C@H](O)CN(CC(C)C)S(=O)(=O)c2ccc(OC)cc2)c1 (stereo not given in full)
half-life [30]: > 9 h
IC50 [11]: 9.8 nM
inhibition [17]: 100%
IC50 [31]: 11.8 nM
